Values quoted from earlier work, collected in patent EP2221049A2, “SOLID PHARMACEUTICAL COMPOSITION OF DED ANOSINE” (Blanver Farmoquimica, LTDA, priority 2007, dated 2009).

Settings: pH below 3, 37°C

time period in which 10% of didanosine is decomposed to hypoxanthine: < 2 min
SMILES: OC[C@@H]1CC[C@H](n2cnc3c(O)ncnc32)O1 [didanosine, 2',3'-dideoxyinosine]
